Data as given in PubChem BioAssay (NCI).
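Dose response: 5 concentrations. Exposure: 48 h. Format: 96-well plates. Endpoint: linear interpolation; highest concentration if not reached. Here, GI50 denotes the concentration required for 50% inhibition of growth. At the TGI there is no net growth.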

How the values were obtained:
Assay in all cases: NCI-60 cell line screen, 48 h
CAKI-1 renal = system: CAKI-1 renal
SNB-19 CNS = system: SNB-19 CNS
NCI-H522 lung = system: NCI-H522 lung
SK-OV-3 ovarian = system: SK-OV-3 ovarian
A498 renal = system: A498 renal
SK-MEL-2 melanoma = system: SK-MEL-2 melanoma
SF-268 CNS = system: SF-268 CNS
TK-10 renal = system: TK-10 renal
NCI-H460 lung = system: NCI-H460 lung
OVCAR-3 ovarian = system: OVCAR-3 ovarian
PC-3 prostate = system: PC-3 prostate
SN12C renal = system: SN12C renal
T-47D breast = system: T-47D breast
MOLT-4 leukemia = system: MOLT-4 leukemia
BT-549 breast = system: BT-549 breast
MCF7 breast = system: MCF7 breast
HOP-92 NSCLC = system: HOP-92 NSCLC
OVCAR-4 ovarian = system: OVCAR-4 ovarian
EKVX NSCLC = system: EKVX NSCLC
SF-295 CNS = system: SF-295 CNS
SF-539 CNS = system: SF-539 CNS
A549 NSCLC = system: A549 NSCLC
NCI-H226 lung = system: NCI-H226 lung
HOP-62 NSCLC = system: HOP-62 NSCLC
OVCAR-8 ovarian = system: OVCAR-8 ovarian
ACHN renal = system: ACHN renal
K-562 leukemia = system: K-562 leukemia
IGROV1 ovarian = system: IGROV1 ovarian
NCI/ADR-RES ovarian = system: NCI/ADR-RES ovarian
UO-31 renal = system: UO-31 renal
RPMI-8226 leukemia = system: RPMI-8226 leukemia
RXF 393 renal = system: RXF 393 renal
HCT-116 colon = system: HCT-116 colon
LOX IMVI melanoma = system: LOX IMVI melanoma
UACC-62 melanoma = system: UACC-62 melanoma
KM12 colon = system: KM12 colon
SW-620 colon = system: SW-620 colon
SK-MEL-28 melanoma = system: SK-MEL-28 melanoma
UACC-257 melanoma = system: UACC-257 melanoma
U251 CNS = system: U251 CNS
CCRF-CEM leukemia = system: CCRF-CEM leukemia
COLO 205 colon = system: COLO 205 colon
DU-145 prostate = system: DU-145 prostate
SK-MEL-5 melanoma = system: SK-MEL-5 melanoma
OVCAR-5 ovarian = system: OVCAR-5 ovarian
NCI-H23 lung = system: NCI-H23 lung
HL-60(TB) leukemia = system: HL-60(TB) leukemia
MDA-MB-435 = system: MDA-MB-435
SNB-75 CNS = system: SNB-75 CNS
HCC-2998 colon = system: HCC-2998 colon
MALME-3M melanoma = system: MALME-3M melanoma
HT29 colon = system: HT29 colon
HCT-15 colon = system: HCT-15 colon
HS 578T breast = system: HS 578T breast
SR leukemia = system: SR leukemia
M14 melanoma = system: M14 melanoma
786-0 renal = system: 786-0 renal
MDA-MB-231 breast = system: MDA-MB-231 breast

## COc1cc2c(cc1Nc1nc(Nc3cccc(F)c3C(N)=O)c3cc[nH]c3n1)N(C(=O)CN1CCN(C(C)C)CC1)CC2
CAKI-1 renal
  GI50: 4.94 µM
  TGI: 11.9 µM
SNB-19 CNS
  GI50: 4.11 µM
  TGI: 8.27 µM
NCI-H522 lung
  GI50: 3.89 µM
  TGI: 7.69 µM
SK-OV-3 ovarian
  GI50: 3.85 µM
  TGI: 7.26 µM
A498 renal
  GI50: 2.43 µM
  TGI: 3.68 µM
SK-MEL-2 melanoma
  GI50: 3.3 µM
  TGI: 6.95 µM
SF-268 CNS
  GI50: 3.98 µM
  TGI: 8.34 µM
TK-10 renal
  GI50: 2.97 µM
  TGI: 7.55 µM
NCI-H460 lung
  GI50: 3.36 µM
  TGI: 7 µM
OVCAR-3 ovarian
  GI50: 4.52 µM
  TGI: 8.69 µM
PC-3 prostate
  GI50: 5.12 µM
  TGI: 13.5 µM
SN12C renal
  GI50: 4.66 µM
  TGI: 10.5 µM
T-47D breast
  GI50: 3.23 µM
  TGI: 6.54 µM
MOLT-4 leukemia
  GI50: 4.74 µM
  TGI: 10.7 µM
BT-549 breast
  GI50: 3.95 µM
  TGI: 7.54 µM
MCF7 breast
  GI50: 0.683 µM
  TGI: 4.32 µM
HOP-92 NSCLC
  GI50: 0.374 µM
  TGI: 3.13 µM
OVCAR-4 ovarian
  GI50: 3.88 µM
  TGI: 7.94 µM
EKVX NSCLC
  GI50: 3.08 µM
  TGI: 7.13 µM
SF-295 CNS
  GI50: 4.32 µM
  TGI: 9.26 µM
SF-539 CNS
  GI50: 3.74 µM
  TGI: 7.7 µM
A549 NSCLC
  GI50: 3.48 µM
  TGI: 7.19 µM
NCI-H226 lung
  GI50: 3.41 µM
  TGI: 7.01 µM
HOP-62 NSCLC
  GI50: 2.88 µM
  TGI: 5.92 µM
OVCAR-8 ovarian
  GI50: 4.54 µM
  TGI: 10.2 µM
ACHN renal
  GI50: 4.59 µM
  TGI: 10.2 µM
K-562 leukemia
  GI50: 4.67 µM
  TGI: 11 µM
IGROV1 ovarian
  GI50: 4.5 µM
  TGI: 10.2 µM
NCI/ADR-RES ovarian
  GI50: 5.42 µM
  TGI: 13.5 µM
UO-31 renal
  GI50: 3.92 µM
  TGI: 9.74 µM
RPMI-8226 leukemia
  GI50: 4.58 µM
  TGI: 10.9 µM
RXF 393 renal
  GI50: 2.3 µM
  TGI: 5.77 µM
HCT-116 colon
  GI50: 3.39 µM
  TGI: 6.63 µM
LOX IMVI melanoma
  GI50: 3.49 µM
  TGI: 7.03 µM
UACC-62 melanoma
  GI50: 3.9 µM
  TGI: 7.74 µM
KM12 colon
  GI50: 3.82 µM
  TGI: 7.31 µM
SW-620 colon
  GI50: 2.81 µM
  TGI: 5.96 µM
SK-MEL-28 melanoma
  GI50: 3.7 µM
  TGI: 7.02 µM
UACC-257 melanoma
  GI50: 2.98 µM
  TGI: 6.3 µM
U251 CNS
  GI50: 3.68 µM
  TGI: 7.09 µM
CCRF-CEM leukemia
  GI50: 5.35 µM
  TGI: 14.2 µM
COLO 205 colon
  GI50: 0.666 µM
  TGI: 3.65 µM
DU-145 prostate
  GI50: 3.77 µM
  TGI: 7.28 µM
SK-MEL-5 melanoma
  GI50: 1.26 µM
  TGI: 2.56 µM
OVCAR-5 ovarian
  GI50: 2.82 µM
  TGI: 7.35 µM
NCI-H23 lung
  GI50: 3.36 µM
  TGI: 7.05 µM
HL-60(TB) leukemia
  GI50: 1.42 µM
  TGI: 5.6 µM
MDA-MB-435
  GI50: 3.12 µM
  TGI: 6.98 µM
SNB-75 CNS
  GI50: 3 µM
  TGI: 6.18 µM
HCC-2998 colon
  GI50: 3.08 µM
  TGI: 6.31 µM
MALME-3M melanoma
  GI50: 3.17 µM
  TGI: 7.06 µM
HT29 colon
  GI50: 0.685 µM
  TGI: 4.06 µM
HCT-15 colon
  GI50: 4.36 µM
  TGI: 9.33 µM
HS 578T breast
  GI50: 3.76 µM
  TGI: 10.3 µM
SR leukemia
  GI50: 1.19 µM
  TGI: 15.2 µM
M14 melanoma
  GI50: 3.99 µM
  TGI: 7.54 µM
786-0 renal
  GI50: 3.98 µM
  TGI: 7.53 µM
MDA-MB-231 breast
  GI50: 3.94 µM
  TGI: 8.22 µM
